Patent US8779154B2, “Fused ring compounds for inflammation and immune-related uses” (priority 2006, dated 2014)

system: IL-2 production; experiment: Inhibition of IL-2 production in PHA-activated Jurkat cells (ELISA); type: cell-based; settings: Homo sapiens, Jurkat, 20 h, PHA 2.5 μg/mL, IL-2 ELISA
Procedure: Jurkat cells were placed in a 96 well plate (0.5 million cells per well in 1% FBS medium) then a test compound of this invention was added at different concentrations. After 10 minutes, the cells were activated with PHA (final concentration 2.5 μg/mL) and incubated for 20 hours at 37° C. under CO2. The final volume was 200 μL. Following incubation, the cells were centrifuged and the supernatants collected and stored at −70° C. prior to assaying for IL-2 production. A commercial ELISA kit (IL-2 Eli-pair, Diaclone Research, Besancon, France) was used to detect production of IL-2, from which dose response curves were obtained. The IC50 value was calculated as the concentration at which 50% of maximum IL-2 production after stimulation was inhibited versus a non-stimulation control.

Row | Compound | IC50 [nM]
1 | O=C(Nc1nc2c(=O)oc3ccc(C(F)(F)F)cc3c2s1)c1c(F)cccc1F [Compound 1] | > 1000
2 | COc1cccc2c1oc(=O)c1nc(NC(=O)c3c(F)cccc3F)sc12 [Compound 2] | > 1000
3 | COc1ccc2c(c1)-c1sc(NC(=O)c3ccncc3F)nc1CCC2 [Compound 3] | > 1000
4 | COc1ccc2c(c1)-c1sc(NC(=O)c3c(F)cccc3F)nc1CCO2 [Compound 4] | > 1000
5 | COc1ccc2c(c1)-c1sc(C(=O)Nc3c(F)cccc3F)nc1CCC2 [Compound 5] | ≤ 30
6 | COc1cccc2c1CCCc1nc(C(=O)Nc3c(F)cccc3F)sc1-2 [Compound 6] | 250 to 500
7 | O=c1oc2ccc(C(F)(F)F)cc2c2sc(NCc3c(F)cccc3F)nc12 [Compound 7] | > 1000
8 | COc1ccc2c(c1)-c1sc(NC(=O)c3c(F)cccc3F)nc1CCC2 [Compound 8] | 30 to 100
9 | COc1ccc2c(c1)-c1sc(NC(=O)c3ccncc3F)nc1CCO2 [Compound 9] | > 1000
10 | COc1ccc2c(c1)-c1sc(C(=O)Nc3ccncc3C)nc1CCC2 [Compound 10] | 250 to 500
11 | COc1cccc2c1CCCc1nc(C(=O)Nc3ccncc3C)sc1-2 [Compound 11] | > 1000
12 | COc1cccc2c1CCCc1nc(NC(=O)c3c(F)cccc3F)sc1-2 [Compound 12] | ≤ 30
13 | COc1cccc2c1CCCc1nc(NC(=O)c3ccncc3F)sc1-2 [Compound 14] | 100 to 250
14 | O=C(Nc1nc2c(=O)oc3ccc(O)cc3c2s1)c1c(F)cccc1F [Compound 15] | > 1000
15 | O=C(Nc1nc2c(s1)-c1ccccc1CCC2)c1c(F)cccc1F [Compound 16] | 250 to 500
16 | O=C(Nc1nc2c(s1)-c1cc(Br)ccc1CCC2)c1c(F)cccc1F [Compound 17] | > 1000
17 | O=C(Nc1c(F)cccc1F)c1nc2c(s1)-c1cc(Br)ccc1CCC2 [Compound 18] | 30 to 100
18 | O=C(Nc1c(F)cccc1F)c1nc2c(s1)-c1cc(-c3cnco3)ccc1CCC2 [Compound 19] | ≤ 30
19 | O=C(Nc1c(F)cccc1F)c1nc2c(s1)-c1ccccc1CCC2 [Compound 31] | > 1000
20 | O=C(Nc1c(F)cccc1F)c1nc2c(s1)-c1cc(O)ccc1CCC2 [Compound 32] | 30 to 100
21 | COc1ccc2c(c1)-c1sc(C(=O)Nc3c(F)cccc3F)nc1CCO2 [Compound 33] | 100 to 250
22 | O=C(Nc1c(F)cccc1F)c1nc2c(s1)-c1cc(-c3nccs3)ccc1CCC2 [Compound 34] | ≤ 30
23 | O=C(Nc1c(F)cccc1F)c1nc2c(s1)-c1cc(-c3ccccn3)ccc1CCC2 [Compound 37] | ≤ 30
24 | COC(=O)c1ccc2c(c1)-c1sc(C(=O)Nc3c(F)cccc3F)nc1CCC2 [Compound 38] | ≤ 30
25 | Cn1nnnc1-c1ccc2c(c1)-c1sc(C(=O)Nc3c(F)cccc3F)nc1CCC2 [Compound 39] | ≤ 30
26 | O=C(Nc1c(F)cccc1F)c1nc2c(s1)-c1cc(-c3nnn[nH]3)ccc1CCC2 [Compound 40] | > 1000
27 | Cn1nnc(-c2ccc3c(c2)-c2sc(C(=O)Nc4c(F)cccc4F)nc2CCC3)n1 [Compound 41] | 250 to 500

Row | Compound | IC50 [nM]
28 | O=C(Nc1c(F)cccc1F)c1nc2c(s1)-c1cc(CN3CCOCC3)ccc1CCC2 [Compound 42] | > 1000
29 | O=C(Nc1nc2c(s1)-c1cccc(O)c1CCC2)c1c(F)cccc1F [Compound 51] | 30 to 100
30 | N#Cc1ccc2c(c1)CCCc1nc(NC(=O)c3c(F)cccc3F)sc1-2 [Compound 59] | 30 to 100
31 | Cc1nc(-c2ccc3c(c2)CCCc2nc(NC(=O)c4c(F)cccc4F)sc2-3)no1 [Compound 60] | 30 to 100
32 | O=Cc1cccc2c1CCCc1nc(NC(=O)c3c(F)cccc3F)sc1-2 [Compound 67] | 500 to 1000
33 | Fc1cccc(F)c1CNc1nc2c(s1)-c1cccc(-c3cnco3)c1CCC2 [Compound 69] | 250 to 500
34 | O=C(Nc1nc2c(s1)-c1cccc(-c3nccs3)c1CCC2)c1c(F)cccc1F [Compound 70] | 100 to 250
35 | Cc1csc(-c2cccc3c2CCCc2nc(NC(=O)c4c(F)cccc4F)sc2-3)n1 [Compound 71] | 250 to 500
36 | O=C(Nc1nc2c(s1)-c1ccc(I)cc1CCC2)c1c(F)cccc1F [Compound 72] | 30 to 100
37 | COC(=O)c1ccc2c(c1)CCCc1nc(NC(=O)c3c(F)cccc3F)sc1-2 [Compound 73] | 30 to 100
38 | O=C(Nc1nc2c(s1)-c1ccc(-n3ccnc3)cc1CCC2)c1c(F)cccc1F [Compound 74] | 100 to 250
39 | O=C(Nc1nc2c(s1)-c1ccc(-c3nccs3)cc1CCC2)c1c(F)cccc1F [Compound 75] | 100 to 250
40 | O=C(Nc1nc2c(s1)-c1ccc(-c3ncco3)cc1CCC2)c1c(F)cccc1F [Compound 76] | 30 to 100
41 | O=C(Nc1nc2c(s1)-c1ccc(-c3nnn[nH]3)cc1CCC2)c1c(F)cccc1F [Compound 77] | > 1000
42 | Cn1nnnc1-c1ccc2c(c1)CCCc1nc(NC(=O)c3c(F)cccc3F)sc1-2 [Compound 78] | ≤ 30
43 | O=C(Nc1nc2c(s1)-c1cc(O)ccc1CCC2)c1c(F)cccc1F [Compound 79] | 250 to 500
44 | N#Cc1ccc2c(c1)-c1sc(NC(=O)c3c(F)cccc3F)nc1CCC2 [Compound 80] | > 1000
45 | CN(C)c1cccc(F)c1C(=O)Nc1nc2c(s1)-c1cc(C#N)ccc1CCC2 [Compound 81] | 500 to 1000
46 | O=C(Nc1nc2c(s1)-c1cc(-c3ccccn3)ccc1CCC2)c1c(F)cccc1F [Compound 82] | > 1000
47 | O=C(Nc1nc2c(s1)-c1cc(-c3nccs3)ccc1CCC2)c1c(F)cccc1F [Compound 83] | 100 to 250
48 | O=C(Nc1nc2c(s1)-c1cc(Br)sc1CCC2)c1c(F)cccc1F [Compound 84] | > 1000
49 | O=C(Nc1nc2c(s1)-c1ccsc1CCC2)c1c(F)cccc1F [Compound 85] | > 1000
50 | N#Cc1cc2c(s1)CCCc1nc(NC(=O)c3c(F)cccc3F)sc1-2 [Compound 86] | > 1000
51 | O=C(Nc1nc2c(s1)-c1ccncc1CCC2)c1c(F)cccc1F [Compound 87] | 30 to 100
52 | O=C(Nc1nc2c(s1)-c1nc(-c3cccnc3)sc1CCC2)c1c(F)cccc1F [Compound 88] | 500 to 1000
53 | O=C(Nc1ncc2c(n1)CCCc1cnc(-c3cccnc3)nc1-2)c1c(F)cccc1F [Compound 89] | 500 to 1000
54 | COc1cccc2c1CCCc1nc(NC(=O)c3c(F)cccc3F)ncc1-2 [Compound 91] | 100 to 250

Row | Compound | IC50 [nM]
55 | COc1cccc2c1CCCc1nc(NC(=O)c3ccncc3C)ncc1-2 [Compound 92] | > 1000
56 | COc1ccc2c(c1)-c1cnc(NC(=O)c3c(F)cccc3F)nc1CCC2 [Compound 93] | 500 to 1000
57 | COc1ccc2c(c1)-c1cnc(NC(=O)c3c(F)cccc3F)nc1CCO2 [Compound 94] | > 1000
58 | COc1ccc2c(c1)-c1cnc(NC(=O)c3ccncc3C)nc1CCO2 [Compound 95] | > 1000
59 | COc1ccc2c(c1)CCCc1nc(NC(=O)c3c(F)cccc3F)cnc1-2 [Compound 96] | 250 to 500
60 | COc1ccc2c(c1)CCCc1c-2ncc(NC(=O)c2c(F)cccc2F)[n+]1[O-] [Compound 97] | 500 to 1000
61 | COc1ccc2c(c1)CCCCc1nc(NC(=O)c3c(F)cccc3F)ncc1-2 [Compound 98] | > 1000
62 | O=C(Nc1ccc2c(c1)CCCc1cnc(-c3cccnc3)nc1-2)c1c(F)cccc1F [Compound 99] | 30 to 100
63 | Fc1cccc(F)c1CN(Cc1c(F)cccc1F)c1ccc2c(c1)CCCc1cnc(-c3cccnc3)nc1-2 [Compound 103] | > 1000
64 | Fc1cccc(F)c1CNc1ccc2c(c1)CCCc1cnc(-c3cccnc3)nc1-2 [Compound 104] | > 1000
65 | O=C(Nc1ccc2c(c1)CCCc1cnc(-c3ccccn3)nc1-2)c1c(F)cccc1F [Compound 106] | 500 to 1000
66 | O=C(Nc1ccc2c(c1)CCCc1cnc(-c3ccncc3)nc1-2)c1c(F)cccc1F [Compound 108] | 30 to 100
67 | O=C(Nc1ccc2c(c1)CCCc1cnc(C3CC3)nc1-2)c1c(F)cccc1F [Compound 110] | 250 to 500
68 | O=C(Nc1c(F)cccc1F)c1nc2c(s1)-c1cc(OC(=O)n3ccnc3)ccc1CCC2 [Compound 111] | 250 to 500
69 | Nc1ccc(-c2ccc3c(c2)-c2sc(C(=O)Nc4c(F)cccc4F)nc2CCC3)cn1 [Compound 115] | 30 to 100
70 | O=C(Nc1c(F)cccc1F)c1nc2c(s1)-c1cc(-c3ccc(O)nc3)ccc1CCC2 [Compound 117] | 100 to 250
71 | O=C(Nc1c(F)cccc1F)c1nc2c(s1)-c1cc(-c3ccnc(F)c3)ccc1CCC2 [Compound 118] | 100 to 250
72 | COc1cc(-c2ccc3c(c2)-c2sc(C(=O)Nc4c(F)cccc4F)nc2CCC3)ccn1 [Compound 119] | 100 to 250
73 | O=C(Nc1c(F)cccc1F)c1nc2c(s1)-c1cc(-c3ccc(F)nc3)ccc1CCC2 [Compound 120] | 250 to 500
74 | COc1ccc(-c2ccc3c(c2)-c2sc(C(=O)Nc4c(F)cccc4F)nc2CCC3)cn1 [Compound 121] | 250 to 500
75 | O=C(Nc1c(F)cccc1F)c1nc2c(s1)-c1cc(-c3cccnc3F)ccc1CCC2 [Compound 122] | ≤ 30
76 | COc1ncccc1-c1ccc2c(c1)-c1sc(C(=O)Nc3c(F)cccc3F)nc1CCC2 [Compound 123] | ≤ 30
77 | O=C(Nc1c(F)cccc1F)c1nc2c(s1)-c1cc(-c3cncnc3)ccc1CCC2 [Compound 124] | 30 to 100
78 | O=C(Nc1c(F)cccc1F)c1nc2c(s1)-c1cc(-c3ccncc3)ccc1CCC2 [Compound 125] | 30 to 100
79 | Cn1cc(-c2ccc3c(c2)-c2sc(C(=O)Nc4c(F)cccc4F)nc2CCC3)cn1 [Compound 127] | ≤ 30

same assay, conditions: Homo sapiens, PHA 2.5 μg/mL, 20 hours, IL-2 ELISA

Row | Compound | IC50 [nM]
80 | O=C(Nc1c(F)ccc([N+](=O)[O-])c1F)c1nc2c(s1)-c1ccc([N+](=O)[O-])cc1CCC2 [Compound 35] | 100 to 250
81 | O=C(Nc1c(F)ccc([N+](=O)[O-])c1F)c1nc2c(s1)-c1cc([N+](=O)[O-])ccc1CCC2 [Compound 36] | 500 to 1000
